Data reported in US20070049564A1 (Wyeth, priority 2005, published 2007).
≈ marks a conversion by molar mass, not a printed value. Like-named read-outs stand apart in the source and are kept apart here.

Assays:
S. aureus GC 2216 = assay: MIC, broth microdilution; conditions: Staphylococcus aureus
E. faecalis GC 2265 = assay: MIC, broth microdilution; conditions: Enterococcus faecalis
Staph. aureus Smith = assay: In vivo activity (oral, iv; ED50) against Staph. aureus Smith in mice
Method: Representative examples of compounds of Formula I were tested for the oral efficacy using S. aureus Smith in mice.

S. aureus GC 6469 = assay: MIC, broth microdilution; conditions: Staphylococcus aureus
E. faecium GC 2243 = assay: MIC, broth microdilution; conditions: Enterococcus faecium
S. aureus GC 4536 = assay: MIC, broth microdilution; conditions: Staphylococcus aureus
E. coli GC 2271 = assay: MIC, broth microdilution; conditions: Escherichia coli
E. coli = assay: Range of MIC for E. coli strains; conditions: Escherichia coli
S. pneumoniae+ GC 4465 = assay: MIC, broth microdilution; conditions: Streptococcus pneumoniae
S. pyogenes GC 4563 = assay: MIC, broth microdilution; conditions: Streptococcus pyogenes
S. agalactiae GC 4564 = assay: MIC, broth microdilution; conditions: Streptococcus agalactiae
S. aureus GC 6335 = assay: MIC, broth microdilution; conditions: Staphylococcus aureus
E. coli GC 2232 = assay: MIC, broth microdilution; conditions: Escherichia coli
E. coli GC 3226 = assay: MIC, broth microdilution; conditions: Escherichia coli
E. faecalis GC 2242 = assay: MIC, broth microdilution; conditions: Enterococcus faecalis
Method: Antimicrobial susceptibility testing. The in vitro activities of the antibiotics are determined by the broth microdilution method as recommended by the National Committee for Clinical Laboratory Standards (NCCLS) (1). Mueller-Hinton II broth (MHBII)(BBL Cockeysville, Md.) is the medium employed in the testing procedures. Microtiter plates containing serial dilutions of each antimicrobial agent are inoculated with each organism to yield the appropriate density (10^5 CFU/ml) in a 100 μl final volume. The plates are incubated for 18-22 hours at 35° C. in ambient air.
Representative compounds were first incubated in mouse serum for an hour prior to the in vitro testing against a panel of selected gram-positive and gram-negative bacteria strains. All compounds were also pre-incubated in water for an hour prior to testing as control. Representative compounds of Formula I were incubated in human serum prior to MIC determination.

E. coli GC 2270 = assay: MIC, broth microdilution; conditions: Escherichia coli
P. aeruginosa GC 2214 = assay: MIC, broth microdilution; conditions: Pseudomonas aeruginosa
E. coli GC 4559 = assay: MIC, broth microdilution; conditions: Escherichia coli
c. albicans GC 3066 = assay: MIC, broth microdilution
E. coli GC 1073 = assay: MIC, broth microdilution; conditions: Escherichia coli

SMILES: CCCN(CC(=O)Nc1cc(N(C)C)c2c(c1O)C(=O)C1=C(O)[C@]3(O)C(=O)C(C(N)=O)=C(O)C(N(C)C)C3CC1C2)C(=O)OCc1oc(=O)oc1-c1ccccc1 (stereo in doubt) [Example 110, (2-oxo-5-phenyl-1,3-dioxol-4-yl)methyl 2-{[(7R,10aS)-9-(aminocarbonyl)-4,7-bis(dimethylamino)-1,8,10a,11-tetrahydroxy-10,12-dioxo-5,5a,6,6a,7,10,10a,12-octahydrotetracen-2-yl]amino}-2-oxoethyl(propyl)carbamate]
- MIC (S. aureus GC 2216; GC2216, pre-incubation in mouse serum): 2 µg/mL (≈ 2.53 µM)
- MIC (S. aureus GC 2216; GC2216, pre-incubation in water): 4 µg/mL (≈ 5.06 µM)
- MIC (E. faecalis GC 2265; GC2265, pre-incubation in mouse serum): 8 µg/mL (≈ 10.1 µM)
- MIC (E. faecalis GC 2265; GC2265, pre-incubation in water): 4 µg/mL (≈ 5.06 µM)
- ED50 (Staph. aureus Smith; Staphylococcus aureus, in Mus musculus, po, read-out: ED50 Staph Smith SOD): 31.9 mg/kg
- ED50 (Staph. aureus Smith; iv, read-out: ED50 Staph Smith SIV): 0.6 mg/kg
- MIC (S. aureus GC 6469; GC6469, pre-incubation in mouse serum): 32 µg/mL (≈ 40.5 µM)
- MIC (S. aureus GC 6469; GC6469, pre-incubation in water): 32 µg/mL (≈ 40.5 µM)
- MIC (E. faecium GC 2243; GC2243, pre-incubation in mouse serum): 0.5 µg/mL (≈ 0.633 µM)
- MIC (E. faecium GC 2243; GC2243, pre-incubation in water): 0.5 µg/mL (≈ 0.633 µM)
- MIC (S. aureus GC 4536; GC4536, pre-incubation in mouse serum): 4 µg/mL (≈ 5.06 µM)
- MIC (S. aureus GC 4536; GC4536, pre-incubation in water): 4 µg/mL (≈ 5.06 µM)
- MIC (E. coli GC 2271; GC2271, pre-incubation in mouse serum): 1 µg/mL (≈ 1.27 µM)
- MIC (E. coli GC 2271; GC2271, pre-incubation in water): 2 µg/mL (≈ 2.53 µM)
- MIC (E. coli; 20 h, read-out: Range of MIC, E. coli (Mouse Serum)): 0.5 to 4 µg/mL (≈ 0.633 to 5.06 µM)
- MIC (E. coli; read-out: Range of MIC, E. coli (Water)): 1 to 8 µg/mL (≈ 1.27 to 10.1 µM)
- MIC (S. pneumoniae+ GC 4465; pre-incubation in mouse serum): 4 µg/mL (≈ 5.06 µM)
- MIC (S. pneumoniae+ GC 4465; pre-incubation in water): 2 µg/mL (≈ 2.53 µM)
- MIC (S. pyogenes GC 4563; GC4563, pre-incubation in mouse serum): 0.12 µg/mL (≈ 0.152 µM)
- MIC (S. pyogenes GC 4563; GC4563, pre-incubation in water): < 0.06 µg/mL
- MIC (S. agalactiae GC 4564; GC4564, pre-incubation in mouse serum): 0.25 µg/mL (≈ 0.317 µM)
- MIC (S. agalactiae GC 4564; GC4564, pre-incubation in water): 0.25 µg/mL (≈ 0.317 µM)
- MIC (S. aureus GC 6335; GC6335, pre-incubation in mouse serum): 8 µg/mL (≈ 10.1 µM)
- MIC (S. aureus GC 6335; GC6335, pre-incubation in water): 8 µg/mL (≈ 10.1 µM)
- MIC (E. coli GC 2232; GC2232, pre-incubation in mouse serum): 1 µg/mL (≈ 1.27 µM)
- MIC (E. coli GC 2232; GC2232, pre-incubation in water): 2 µg/mL (≈ 2.53 µM)
- MIC (E. coli GC 3226; GC3226, pre-incubation in mouse serum): 2 µg/mL (≈ 2.53 µM)
- MIC (E. coli GC 3226; GC3226, pre-incubation in water): 4 µg/mL (≈ 5.06 µM)
- MIC (E. faecalis GC 2242; GC2242, pre-incubation in mouse serum): 1 µg/mL (≈ 1.27 µM)
- MIC (E. faecalis GC 2242; GC2242, pre-incubation in water): 1 µg/mL (≈ 1.27 µM)
- MIC (E. coli GC 2270; GC2270, pre-incubation in mouse serum): 1 µg/mL (≈ 1.27 µM)
- MIC (E. coli GC 2270; GC2270, pre-incubation in water): 1 µg/mL (≈ 1.27 µM)
- MIC (P. aeruginosa GC 2214; GC2214, pre-incubation in mouse serum): > 64 µg/mL
- MIC (P. aeruginosa GC 2214; GC2214, pre-incubation in water): > 64 µg/mL
- MIC (E. coli GC 4559; GC4559, pre-incubation in mouse serum): 2 µg/mL (≈ 2.53 µM)
- MIC (E. coli GC 4559; GC4559, pre-incubation in water): 2 µg/mL (≈ 2.53 µM)
- MIC (c. albicans GC 3066; Candida albicans, GC3066): > 64 µg/mL
- MIC (c. albicans GC 3066; pre-incubation in water): >64 UG/ML
- MIC (E. coli GC 1073; GC1073, pre-incubation in mouse serum): 2 µg/mL (≈ 2.53 µM)
- MIC (E. coli GC 1073; GC1073, pre-incubation in water): 8 µg/mL (≈ 10.1 µM)
